Source: patent publication US10456377B2, “Anesthetic comprising tetracaine and a vasoconstrictor for administration to a subject” (St. Renatus, LLC, priority 2009, dated 2019)
Counter-ions that a name gives are not always drawn.

Test system: maxillary dentition
Test: Intranasal tetracaine HCl solution, anesthesia of the maxillary dentition by electric pulp testing (EPT)
Assay type: in vivo, human
Conditions: nasal spray, tetracaine doses between 4 and 16 mg, 80 subjects
Description: The purpose of this study was to identify an effective and safe dosage of an intranasally administered tetracaine hydrochloride solution for obtaining anesthesia of the maxillary dentition. Healthy human volunteers were administered a dose of tetracaine HCl delivered as a nasal spray using a BD Accuspray™ device. The administration of the local anesthetic varied by total dose, concentration, and volume, and it included single doses in a single nostril, split doses in the same nostril, and divided doses in both nostrils. Different techniques regarding direction of spray were also investigated.
The efficacy of tetracaine hydrochloride in 80 subjects was measured by monitoring pain levels via electric pulp testing (EPT). EPT testing was accomplished by passing a current through the tooth to be tested wherein the lowest level of current is a “0” and the highest level of current is an “80.” Subjects are exposed to an increasing amount of current (starting at 0 and ramping up to 80). If any pain was felt by the subject, the test was stopped and the EPT reading was recorded.
Subjects received tetracaine doses between 4 and 16 mg.

Compound: CCCCNc1ccc(C(=O)OCCN(C)C)cc1 [tetracaine HCl, 2-(dimethylamino)ethyl 4-(butylamino)benzoate]
- maxillary arch anesthesia, as indicated by an EPT score of 80: did not result in maxillary arch anesthesia
